Data on nine molecules can be found in ChEMBL document CHEMBL1649100, “N-3 Hydroxylation of Pyrimidine-2,4-diones Yields Dual Inhibitors of HIV Reverse Transcriptase and Integrase” (ACS Med Chem Lett, 2011).

As a reminder, the IC50 is the concentration needed to halve the response being measured. One may read the EC50 as the concentration that produces a half-maximal response. The term CC50 denotes the concentration giving 50% cytotoxicity. Read a high CC50 as better tolerance by the cells.

Data set [1] in a line: Inhibition of HIV integrase strand transfer activity expressed in Escherichia coli. The arrangement: species or system Human immunodeficiency virus.
A short description of data set [2]: Inhibition of HIV integrase 3' processing activity expressed in Escherichia coli. The arrangement: species or system Human immunodeficiency virus.
Data set [3] relates to Human immunodeficiency virus 1. Briefly: Antiviral activity against HIV1 3B infected in human CEM-SS cells assessed as inhibition of viral replication after 6 days by MTS assay. In kind it is functional, organism-based. Particulars: Human immunodeficiency virus 1, 3B, 144 h.
Data set [4] concerns the target Human immunodeficiency virus type 1 reverse transcriptase (Human immunodeficiency virus 1, UniProt Q72547). Briefly: Inhibition of HIV1 reverse transcriptase.
The nature of data set [5]: Therapeutic index, ratio of CC50 for human CEM-SS cells to EC50 for HIV1 3B. In kind it is cell-based. The conditions noted are these: read-out: Ratio CC50/EC50.
Data set [6] can be described thus: Cytotoxicity in human CEM-SS cells after 6 days by MTS assay. In kind it is cell-based. (In general: Tetrazolium dyes change colour on reduction, which living cells bring about.)

In the case of `CC(C)c1c(Cc2ccc(F)cc2)n(COCc2ccc(F)cc2)c(=O)n(O)c1=O`, the IC50 is 5.5 µM in data set [1], greater than 333 µM in data set [2] and greater than 100 µM in data set [4]. The EC50 in data set [3] is greater than 10 µM.

For `CC(C)c1c(Cc2ccccc2)n(COCc2ccccc2)c(=O)n(O)c1=O`, the IC50 was 21 µM in data set [1], greater than 333 µM in data set [2] and 6.2 µM in data set [4]. Moreover, the EC50 in data set [3] was found to be 0.008 µM. In data set [5], the selectivity ratio was greater than 2500. For the same molecule, in data set [6], the CC50 at 144 h is greater than 20 µM.

For `CC(C)c1c(Cc2ccc(F)cc2)n(COCc2ccccc2)c(=O)n(O)c1=O`, the results for the IC50 in data set [1], in data set [2] and in data set [4] were 7.3 µM, greater than 333 µM and greater than 100 µM, respectively. Moreover, the EC50 in data set [3] was greater than 10 µM.

Take `CC(C)c1c(Cc2ccccc2)n(COCc2ccc(F)cc2)c(=O)n(O)c1=O`: the IC50 in data set [1] was 3.5 µM; in data set [2] it was greater than 333 µM; in data set [4], 0.17 µM. Also, the EC50 in data set [3] came out at 0.024 µM. The selectivity ratio in data set [5] was greater than 830. This molecule also registered a CC50 at 144 h in data set [6] greater than 20 µM.

As to `CCc1c(Cc2ccccc2)n(COCc2ccccc2)c(=O)n(O)c1=O`, the results for the IC50 in data set [1], in data set [2] and in data set [4] were 8.2 µM, greater than 333 µM and 9.4 µM, respectively. For the same molecule, the EC50 in data set [3] amounted to 1.1 µM. The selectivity ratio in data set [5] is greater than 18. For the same molecule, the CC50 at 144 h in data set [6] was greater than 20 µM.

Regarding `CC(C)c1c(Cc2ccccc2)n(COCc2ccccc2)c(=O)n(N)c1=O`, the IC50 in data set [1] is greater than 333 µM; in data set [2], greater than 333 µM; in data set [4], 1.5 µM. In data set [3], the EC50 was greater than 10 µM.

Take `CCOCn1c(Cc2ccccc2)c(C(C)C)c(=O)n(O)c1=O`: the IC50 in data set [1] is 85 µM; in data set [2], greater than 333 µM; in data set [4], 13 µM. The EC50 in data set [3] was 4.3 µM. In data set [5], the selectivity ratio is greater than 4.7. This molecule also registered a CC50 at 144 h in data set [6] greater than 20 µM.

On to `CCOCn1c(Cc2ccc(F)cc2)c(C(C)C)c(=O)n(O)c1=O`, for which the results for the IC50 in data set [1], in data set [2] and in data set [4] were 105 µM, greater than 333 µM and greater than 100 µM, respectively. In addition, the 50% effective concentration (EC50) in data set [3] is greater than 10 µM.

As to `CC(C)c1c(Cc2ccccc2)n(COCc2ccccc2)c(=O)[nH]c1=O`, the figures for the IC50 in data set [1], in data set [2] and in data set [4] were greater than 333 µM, greater than 333 µM and 0.04 µM, respectively. In addition, the EC50 in data set [3] amounted to 0.013 µM. In addition, in data set [5], the selectivity ratio is greater than 1500. In addition, the CC50 at 144 h in data set [6] was greater than 20 µM.
